According to patent US20050148607A1, “Preventives and/or remedies for subjects with the expression or activation of her2 and/or egfr” (priority 2002, published 2005):

Experiments:
[1] = system: human pancreatic cancer HPAC (both EGFR, Her2 positive); assay: In vivo antitumor effects, HPAC xenograft in nude mice; conditions: Balb/c nude mice, final day
Description: (§1) Cultured human cancer cells suspended in PBS were implanted subcutaneously in the back of female Balb/c nude mice (Balb/cAJcl-nu mouse, CLEA Japan Inc., 5-week-old when received) at 5×10^6/100 μl. When about 7 days later and the average volume of the implanted tumors almost reached 100 mm^3, the mice were allotted by 4 mice per group such that the average tumor volume of each group became equal.
(§2) For the tumor volume, the longer diameter and the shorter diameter were measured with calipers and calculated as [(shorter diameter)^2×(longer diameter/2)]=tumor volume [mm^3]. A pharmaceutical agent was administered by oral gavage once a day for 14 consecutively days from the day of allottment, and the pharmaceutical agent was not administered to the mice of the control group. The relative tumor growth rate was calculated based on the tumor volume on the administration start day for the pharmaceutical agent treatment group against the control group as rate 1. The antitumor effects are shown in % control. The % control was calculated by the following formula. % control=[(average relative tumor growth rate of pharmaceutical agent treatment group on the final day-1)/(average relative tumor growth rate of control group on the final day-1)]×100

[2] = system: human rectal cancer LS174T (EGFR negative, Her2 positive); assay: In vivo antitumor effects, LS174T xenograft in nude mice; conditions: Balb/c nude mice, final day
Description: as §1, §2

[3] = system: EGFR overexpression cancer A431; conditions: EGFR overexpression cancer A431, literature; cited from earlier work
[4] = system: human cervical cancer ME180 (EGFR positive, Her2 negative); assay: In vivo antitumor effects, ME180 xenograft in nude mice; conditions: Balb/c nude mice, final day
Description: as §1, §2

[5] = system: human lung cancer NCI-H520 (both EGFR, Her2 negative); assay: In vivo antitumor effects, NCI-H520 xenograft in nude mice; conditions: Balb/c nude mice, final day
Description: as §1, §2

erbB3 = conditions: MDA-MB-453 cells stimulated with Heregulin, literature; cited from earlier work
[6] = 10 mg/kg oral once a day for 14 days
[7] = 30 mg/kg oral once a day for 14 days

Compound | % control [1, 6] [% control] | % control [1, 7] [% control] | % control [2, 6] [% control] | % control [2, 7] [% control] | in vivo antitumor effect [3] | % control [4, 6] [% control] | % control [4, 7] [% control] | % control [5, 6] [% control] | % control [5, 7] [% control] | inhibition of tyrosine phosphorylation of erbB3 (erbB3)
C=CC(=O)Nc1cc2c(Nc3ccc(F)c(Cl)c3)ncnc2cc1OCCCN1CCOCC1 [PD, N-[4-(3-chloro-4-fluorophenyl)amino-7-[3-(4-morpholinyl)propoxy]quinazolin-6-yl]acrylamide] | 39 | 11 | 56 | 34 | shows an in vivo antitumor effect |  |  |  |  | 
C=CC(=O)Nc1cc2c(Nc3ccc(F)c(Cl)c3)ncnc2cc1OCCCN1CCOCC1 [PD.2HCl] |  |  |  |  |  | 25 | 17 | 95 | 87 | inhibit tyrosine phosphorylation
